From ChEMBL document CHEMBL3045678, “Synthesis of Some New Antimicrobial Thiadiazolyl and Oxadiazolyl Quinoline Derivatives” (2005)
≈ marks a conversion by molar mass, not a printed value. Calls of active or inactive are those of the source. No cut-off for these calls is given here.

Assays:
Assay type in all cases: functional
Escherichia coli = test: Antimicrobial activity against Escherichia coli NCTC 10418 at 1 mg/ml after 24 hr by cup diffusion technique; conditions: for zone of inhibition at 1000 µg/mL: NCTC 10418, 24 h, read-out: DIZ
Staphylococcus aureus [1] = test: Antimicrobial activity against Staphylococcus aureus ATCC 6538p at 1 mg/ml after 24 hr by cup diffusion technique; conditions: for zone of inhibition at 1000 µg/mL: read-out: DIZ
Candida albicans [2] = test: Antimicrobial activity against Candida albicans ATCC 10231 at 1 mg/ml after 24 hr by cup diffusion technique; conditions: for zone of inhibition at 1000 µg/mL: ATCC 10231, 24 h, read-out: DIZ
Pseudomonas aeruginosa [3] = test: Antimicrobial activity against Pseudomonas aeruginosa ATCC 9027 at 1 mg/ml after 24 hr by cup diffusion technique; conditions: for zone of inhibition at 1000 µg/mL: ATCC 9027, 24 h, read-out: DIZ
Pseudomonas aeruginosa [4] = test: Antimicrobial activity against Pseudomonas aeruginosa ATCC 9027 after 24 hr by two-fold dilution method; conditions: ATCC 9027, 24 h
Staphylococcus aureus [5] = test: Antimicrobial activity against Staphylococcus aureus ATCC 6538p after 24 hr by two-fold dilution method
Candida albicans [6] = test: Antimicrobial activity against Candida albicans ATCC 10231 after 48 hr by two-fold dilution method

Molecule | zone of inhibition at 1000 µg/mL (Escherichia coli) | zone of inhibition at 1000 µg/mL (Staphylococcus aureus [1]) | zone of inhibition at 1000 µg/mL (Candida albicans [2]) | zone of inhibition at 1000 µg/mL (Pseudomonas aeruginosa [3]) | further results
O=C(Nc1nnc(SCc2ccccc2)s1)c1ccnc2ccccc12 | 18 mm | 15 mm | 19 mm | 17 mm | –
O=C(Nc1nnc(SCc2ccccc2)s1)c1cc(-c2ccccc2)nc2ccccc12 | 16 mm | 13 mm | 18 mm | 15 mm | –
O=C(Nc1nnc(S(=O)(=O)Cc2ccccc2)s1)c1ccnc2ccccc12 | 18 mm | 27 mm | 19 mm | 20 mm | MBC (Pseudomonas aeruginosa [4]): > 500 µg/mL; MIC (Pseudomonas aeruginosa [4]): 62.5 µg/mL (≈ 152 µM); MBC (Staphylococcus aureus [5]): 500 µg/mL (≈ 1220 µM); MIC (Staphylococcus aureus [5]): 125 µg/mL (≈ 305 µM)
CS(=O)(=O)c1nnc(NC(=O)c2ccnc3ccccc23)s1 | 18 mm | 13 mm | 19 mm | 13 mm | –
Cc1cc(-c2nnc(SCc3ccccc3)o2)c2ccccc2n1 | 18 mm | 13 mm | 19 mm | – | diameter of the inhibition zone (DIZ) (Pseudomonas aeruginosa [3]): inactive
CS(=O)(=O)c1nnc(NC(=O)c2cc(-c3ccccc3)nc3ccccc23)s1 | 18 mm | 30 mm | 19 mm | 15 mm | MBC (Staphylococcus aureus [5]): 31.2 µg/mL (≈ 76.1 µM); MIC (Staphylococcus aureus [5]): 31.2 µg/mL (≈ 76.1 µM)
CSc1nnc(NC(=O)c2ccnc3ccccc23)s1 | 18 mm | 17 mm | 19 mm | 15 mm | –
Cc1cc(C(=O)Nc2nnc(S(=O)(=O)Cc3ccccc3)s2)c2ccccc2n1 | 19 mm | 28 mm | 19 mm | 13 mm | MBC (Staphylococcus aureus [5]): > 500 µg/mL; MIC (Staphylococcus aureus [5]): 62.5 µg/mL (≈ 147 µM)
CCS(=O)(=O)c1nnc(-c2cc(C)nc3ccccc23)o1 | 19 mm | 16 mm | 24 mm | 16 mm | MBC (Candida albicans [6]; ATCC 10231, 48 h): 125 µg/mL (≈ 412 µM); MIC (Candida albicans [6]; ATCC 10231, 48 h): 125 µg/mL (≈ 412 µM)
CCSc1nnc(-c2cc(-c3ccccc3)nc3ccccc23)o1 | 18 mm | – | 19 mm | 15 mm | diameter of the inhibition zone (DIZ) (Staphylococcus aureus [1]): inactive
CCSc1nnc(-c2cc(C)nc3ccccc23)o1 | 19 mm | 15 mm | 19 mm | – | diameter of the inhibition zone (DIZ) (Pseudomonas aeruginosa [3]): inactive
c1ccc(CSc2nnc(-c3cc(-c4ccccc4)nc4ccccc34)o2)cc1 | 18 mm | 13 mm | 18 mm | – | diameter of the inhibition zone (DIZ) (Pseudomonas aeruginosa [3]): inactive
CCS(=O)(=O)c1nnc(NC(=O)c2cc(-c3ccccc3)nc3ccccc23)s1 | 19 mm | 31 mm | 19 mm | 15 mm | MBC (Staphylococcus aureus [5]): 125 µg/mL (≈ 294 µM); MIC (Staphylococcus aureus [5]): 125 µg/mL (≈ 294 µM)
CCS(=O)(=O)c1nnc(NC(=O)c2ccnc3ccccc23)s1 | 19 mm | 20 mm | 19 mm | 20 mm | MBC (Pseudomonas aeruginosa [4]): 125 µg/mL (≈ 359 µM); MIC (Pseudomonas aeruginosa [4]): 125 µg/mL (≈ 359 µM); MBC (Staphylococcus aureus [5]): > 500 µg/mL; MIC (Staphylococcus aureus [5]): 125 µg/mL (≈ 359 µM)
CS(=O)(=O)c1nnc(-c2cc(-c3ccccc3)nc3ccccc23)o1 | 18 mm | 20 mm | 18 mm | 15 mm | –
O=S(=O)(Cc1ccccc1)c1nnc(-c2cc(-c3ccccc3)nc3ccccc23)o1 | 18 mm | 12 mm | 19 mm | – | diameter of the inhibition zone (DIZ) (Pseudomonas aeruginosa [3]): inactive

Molecule | zone of inhibition at 1000 µg/mL (Escherichia coli) | zone of inhibition at 1000 µg/mL (Staphylococcus aureus [1]) | zone of inhibition at 1000 µg/mL (Candida albicans [2]) | zone of inhibition at 1000 µg/mL (Pseudomonas aeruginosa [3]) | further results
Cc1cc(C(=O)Nc2nnc(SCc3ccccc3)s2)c2ccccc2n1 | 18 mm | 15 mm | 24 mm | 17 mm | MBC (Candida albicans [6]; ATCC 10231, 48 h): 250 µg/mL (≈ 637 µM); MIC (Candida albicans [6]; ATCC 10231, 48 h): 250 µg/mL (≈ 637 µM)
Cc1cc(-c2nnc(S(C)(=O)=O)o2)c2ccccc2n1 | 18 mm | 19 mm | 27 mm | 13 mm | MBC (Candida albicans [6]; ATCC 10231, 48 h): 125 µg/mL (≈ 432 µM); MIC (Candida albicans [6]; ATCC 10231, 48 h): 31.2 µg/mL (≈ 108 µM)
CCS(=O)(=O)c1nnc(-c2cc(-c3ccccc3)nc3ccccc23)o1 | 17 mm | 18 mm | 18 mm | 13 mm | –
CCSc1nnc(NC(=O)c2cc(C)nc3ccccc23)s1 | 18 mm | 17 mm | 18 mm | 14 mm | –
O=C(Nc1nnc(S(=O)(=O)Cc2ccccc2)s1)c1cc(-c2ccccc2)nc2ccccc12 | 19 mm | 20 mm | 18 mm | 14 mm | MBC (Staphylococcus aureus [5]): 500 µg/mL (≈ 1030 µM); MIC (Staphylococcus aureus [5]): 500 µg/mL (≈ 1030 µM)
CCS(=O)(=O)c1nnc(NC(=O)c2cc(C)nc3ccccc23)s1 | 17 mm | 13 mm | 18 mm | 13 mm | –
NYSTATIN | – | – | – | – | diameter of the inhibition zone (DIZ) (Escherichia coli): inactive; diameter of the inhibition zone (DIZ) (Staphylococcus aureus [1]): inactive; MIC (Candida albicans [6]): 25 µg/mL; inhibition zone (IZ) (Candida albicans [2]): 37 mm; diameter of the inhibition zone (DIZ) (Pseudomonas aeruginosa [3]): inactive
Cc1cc(-c2n[nH]c(=S)o2)c2ccccc2n1 | 18 mm | 20 mm | 18 mm | 12 mm | MBC (Staphylococcus aureus [5]): > 500 µg/mL; MIC (Staphylococcus aureus [5]): 62.5 µg/mL (≈ 257 µM)
CSc1nnc(-c2cc(C)nc3ccccc23)o1 | 17 mm | 17 mm | 26 mm | 13 mm | MBC (Candida albicans [6]; ATCC 10231, 48 h): 125 µg/mL (≈ 486 µM); MIC (Candida albicans [6]; ATCC 10231, 48 h): 125 µg/mL (≈ 486 µM)
CSc1nnc(NC(=O)c2cc(-c3ccccc3)nc3ccccc23)s1 | 16 mm | 15 mm | 18 mm | 20 mm | MBC (Pseudomonas aeruginosa [4]): > 500 µg/mL; MIC (Pseudomonas aeruginosa [4]): 250 µg/mL (≈ 661 µM)
CSc1nnc(-c2cc(-c3ccccc3)nc3ccccc23)o1 | 18 mm | 12 mm | 18 mm | 13 mm | –
CCSc1nnc(NC(=O)c2cc(-c3ccccc3)nc3ccccc23)s1 | 19 mm | 15 mm | 18 mm | 20 mm | MBC (Pseudomonas aeruginosa [4]): 500 µg/mL (≈ 1270 µM); MIC (Pseudomonas aeruginosa [4]): 62.5 µg/mL (≈ 159 µM)
Cc1cc(-c2nnc(S(=O)(=O)Cc3ccccc3)o2)c2ccccc2n1 | 18 mm | 16 mm | 19 mm | – | diameter of the inhibition zone (DIZ) (Pseudomonas aeruginosa [3]): inactive
CCSc1nnc(NC(=O)c2ccnc3ccccc23)s1 | 17 mm | 15 mm | 17 mm | 14 mm | –
O=C(O)c1cn(C2CC2)c2cc(N3CCNCC3)c(F)cc2c1=O [CIPROFLOXACIN] | 30 mm | 25 mm | – | 40 mm | MIC (Pseudomonas aeruginosa [4]): 4 µg/mL (≈ 12.1 µM); MIC (Staphylococcus aureus [5]): 2 µg/mL (≈ 6.04 µM); diameter of the inhibition zone (DIZ) (Candida albicans [2]): inactive
